Counter-ions that a name gives are not always drawn.
Legend:
[1] = system: C.B17/Icr-Prkdc^scid/IcrIcoCrl mice, adoptive transfer model of IBD; test: CD4+CD45RBhi Adoptive Transfer Inflammatory Bowel Disease; assay type: in vivo, mouse; details: 200 mg/kg oral twice daily, 21 days of treatment
Protocol: On Day 0, CD4+ T cells were isolated from the spleens of female Balb/cAnNCrl mice (Charles River Laboratories; 12 weeks old) as described in Example E. The resulting cells were labeled with fluorescent antibodies against CD4 and CD45 markers and were sorted by flow cytometry for CD4+CD45RBhi cells based on fluorescence. 400,000 CD4+CD45RBhi cells were then injected intraperitoneally into C.B17/Icr-Prkdc^scid/IcrIcoCrl mice (Charles River Laboratories strain code 236; 12 weeks old). This injection of cells is known to those skilled in the art as adoptive transfer. […]
For each H&E stained section, submucosal edema was quantitated by measuring the distance from the muscularis mucosa to the internal border of the outer muscle layer in a non-tangential area thought to most representative the severity of this change. Mucosal thickness was also measured in a non-tangential area of the section that best represented the overall mucosal thickness. […]
The parameters reflecting epithelial cell loss/damage were scored individually using a % area involved scoring method: […]
The three scored parameters (inflammation, glandular epithelial loss, and erosion) were ultimately summed to arrive at a sum of histopathology scores, which indicates the overall damage and would have a maximum score of 15.

[2] = system: C57BL/6J mice immunized with hen egg lysozyme; test: B Cell in vivo Functional Assay (HEL-specific antibody isotypes); set-up: species or system mouse; details: 200 mg/kg oral once a day, Day 21, vs vehicle
Protocol: To determine the effect of a compound of Formula I on B cell responses, the following experiment was conducted. On Day O, C57BL/6J mice (Jackson Laboratories #000664, 6-8 weeks of age) were immunized at the base of the tail with 20 μg of hen egg lysozyme (HEL; Sigma #L7773) with complete Freund's adjuvant (CFA; Sigma #F5881). Mice were re-immunized on day 7 with 20 μg HEL in alum (Pierce catalog #77161). Starting on Day 0 and continuing through Day 28, mice were dosed once a day by oral administration with vehicle (water) or the compound of Example 26 (200 mg/kg). Serum was collected on days 0, 7, 14, 21, and 28 and analyzed for HEL-specific total IgG, IgG1, IgG2a, IgG2b, and IgG3 antibody production by capture ELISA (antibodies purchased from Invitrogen, catalog #M30007, #M32107, #M32307, #M32507, #M32607). ELISA plates were quantitated using Molecular Devices Versamax reader at […]. The group mean titer of each antibody analyte was converted to percent of vehicle control (=100%).

With `F[C@@H]1CNCCC1Oc1cccc2ccc(-c3nnc4ccccn34)nc12` (stereo in doubt) [Example 26, 2-([1,2,4]triazolo[4,3-a]pyridin-3-yl)-8-((cis)-3-fluoropiperidin-4-yloxy)quinoline dihydrochloride] the “colon histopathology scores (inflammation, gland loss, erosion)” value [1] was “reduced severity of disease”, the “decrease in mucosal thickening relative to vehicle” value [1] was 84% and the “HEL-specific IgG2a titer” value [2] was “decreased”. For the same molecule, the “HEL-specific IgG2b titer” value [2] was “decreased” and the “HEL-specific IgG3 titer” value [2] was “decreased”.
